Experimental data published in BindingDB's records for doi:10.1021/jm980035y (Cephalon, 1998).
Square brackets hold non-standard residues; d marks the D form. Peptide text beside a SMILES is read from it. * marks the point of attachment. Bn = c1ccc(C*)cc1; Ms = CS(=O)(=O)*

Target: Calpain-2 catalytic subunit (Sus scrofa)
Assay: Inhibitory activity against Calpain-II receptor in porcine kidney

| Ki [nM] | Structure (SMILES) |
| --- | --- |
| 5 | CS(=O)(=O)N[C@H](COCc1ccccc1)C(=O)N[C@H](C=O)Cc1ccc(OCc2ccccc2)cc1 [(R)-3-Benzyloxy-N-[(S)-1-(4-benzyloxy-benzyl)-2-oxo-ethyl]-2-methanesulfonylamino-propionamide] (Ms-[dS](Bn)-Tyr(Bn)-aldehyde) |
| 7 | CC(OCc1ccccc1)[C@@H](NS(C)(=O)=O)C(=O)N[C@H](C=O)Cc1ccccc1 (stereo partly drawn) [(R)-N-((S)-1-Benzyl-2-oxo-ethyl)-3-benzyloxy-2-methanesulfonylamino-butyramide] |
| 7 | CS(=O)(=O)N[C@H](CSCc1ccccc1)C(=O)N[C@H](C=O)Cc1ccccc1 [(S)-N-((S)-1-Benzyl-2-oxo-ethyl)-3-benzylsulfanyl-2-methanesulfonylamino-propionamide] (Ms-[dC](Bn)-Phe-aldehyde) |
| 17 | CS(=O)(=O)N[C@H](COCc1ccccc1)C(=O)N[C@H](C=O)CCCCNS(=O)(=O)c1ccccc1 [(R)-N-((S)-5-Benzenesulfonylamino-1-formyl-pentyl)-3-benzyloxy-2-methanesulfonylamino-propionamide] |
